# According to patent publication US5696151A, “Compounds useful for the inhibition of the replication of HIV-1 and HIV-1 mutants” (priority 1995, dated 1997):
# Legend:
# Assay type in all cases: cell-based
# [1] = system: HIV-1/100-Ile; assay: Inhibition of HIV-1 induced syncytium formation in CEM cells, RT mutant 100-Ile; details: Human immunodeficiency virus 1, CCRF-CEM, 96 h, Table 2B, day 4, averages of 2 to 3 independent experiments, read-out: Antiviral Activity of Comparative Compounds EC50, 100-Ile
# Description: (§1) CEM cells were obtained from the American Tissue Cell Culture Collection (Rockville, Md.). HIV-1(IIIB) was originally obtained from the culture supernatant of persistently HIV-1-infected H9 cells and was provided by R. C. Gallo and M. Popovic (National Cancer Institute, National Institutes of Health, Bethesda, Md.). […] 67: 5353-5359 (1993); HIV-1/Lys-138 ("Lys-138") was selected for resistance against TSAO-m^3T as described in Balzarini et al, Virology 192: 246-253 (1993) and Balzarini et al, Proc. Nat. Acad. Sci. USA 90: 6952-6956 (1993); HIV-1/181-Cys ("181-Cys") was selected for resistance against pyridinone L-697,661 as described in Balzarini et al, Virology 192: 246-253 (1993); and HIV-1/188-His ("188-His") was selected for resistance against HEPT as described in Balzarini et al, Mol. Pharmocol. 44: 694-701 (1993). 188-His was then further converted to HIV-1/188-Leu "188-Leu") upon further passage in cell culture in the absence of the HEPT.
# (§2) CEM cells were suspended at ≈300,000 cells per ml of culture medium and infected with approximately 100 CCID50 (CCID50 being the 50% cell culture infective dose) of HIV-1(IIIB) or one of the HIV-1 RT mutant strains described above. Then 100 μl of the infected cell suspensions was added to 200 μl microtiter plate wells containing 100 μl of appropriate serial (5-fold) dilutions of the test compounds. The inhibitory effect of the test compounds on HIV-1 induced syncytium formation in CEM cells was examined microscopically on day 4 post infection.
# [2] = system: HIV-1(IIIB); assay: Inhibition of HIV-1 induced syncytium formation in CEM cells, wild type; details: Human immunodeficiency virus 1, IIIB, CCRF-CEM, 96 h, Table 2B, WT = HIV-1(IIIB), day 4, averages of 2 to 3 independent experiments, read-out: Antiviral Activity of Comparative Compounds EC50, WT
# Description: as §1, §2
# [3] = system: HIV-1/106-Ala; assay: Inhibition of HIV-1 induced syncytium formation in CEM cells, RT mutant 106-Ala; details: Human immunodeficiency virus 1, CCRF-CEM, 96 h, Table 2B, day 4, averages of 2 to 3 independent experiments, read-out: Antiviral Activity of Comparative Compounds EC50, 106-Ala
# Description: as §1, §2
# [4] = in vitro; details: human, cem cells, CC50 (50% cytostatic concentration), Table 2B; CEM cell proliferation; averages of 2 to 3 independent experiments
# Description: as §1
# ^b 50% cytostatic concentration (i.e., compound concentration require
# to inhibit CEM cell proliferation by 50%)
# [5] = system: HIV-1/Lys-138; assay: Inhibition of HIV-1 induced syncytium formation in CEM cells, RT mutant 138-Lys; details: Human immunodeficiency virus 1, CCRF-CEM, 96 h, Table 2B, day 4, averages of 2 to 3 independent experiments, read-out: Antiviral Activity of Comparative Compounds EC50, 138-Lys
# Description: as §1, §2
# [6] = system: HIV-1/181-Cys; assay: Inhibition of HIV-1 induced syncytium formation in CEM cells, RT mutant 181-Cys; details: Human immunodeficiency virus 1, CCRF-CEM, 96 h, Table 2B, day 4, averages of 2 to 3 independent experiments, read-out: Antiviral Activity of Comparative Compounds EC50, 181-Cys
# Description: as §1, §2
Structure (SMILES),EC50 [1],EC50 [2],EC50 [3],CC50 [4],EC50 [5],EC50 [6]
COc1ccccc1C(=S)Nc1ccc(Cl)c(C(=O)OC2CCCC2)c1 [Compound 69],0.65 µg/mL,0.04 µg/mL,0.65 µg/mL,10 µg/mL,0.55 µg/mL,3.5 µg/mL
Cc1ccccc1C(=O)Nc1ccc(Cl)c(C(=O)OC2CCCCC2)c1 [Compound 70],2.5 µg/mL,0.19 µg/mL,6.5 µg/mL,5.2 µg/mL,5.5 µg/mL,2.5 µg/mL
Cc1ccccc1C(=S)Nc1ccc(Cl)c(C(=O)OC2CCCCC2)c1 [Compound 71],0.6 µg/mL,0.049 µg/mL,3 µg/mL,4 µg/mL,3 µg/mL,1.6 µg/mL
CON=Cc1cc(NC(=S)c2ccoc2C)ccc1Cl [Compound 72],2.3 µg/mL,0.03 µg/mL,0.5 µg/mL,24 µg/mL,0.085 µg/mL,1.6 µg/mL
C=CCOc1cc(NC(=S)c2ccoc2C)ccc1OC [Compound 73],2.9 µg/mL,0.017 µg/mL,0.8 µg/mL,> 100 µg/mL,0.09 µg/mL,0.85 µg/mL
C=CCOc1cc(NC(=S)c2ccoc2C)ccc1C#N [Compound 74],6 µg/mL,0.015 µg/mL,0.45 µg/mL,> 100 µg/mL,0.09 µg/mL,3 µg/mL
CCOC(=O)c1cc(NC(=S)c2ccoc2C)ccc1C [Compound 75],0.9 µg/mL,0.009 µg/mL,0.7 µg/mL,16 µg/mL,0.35 µg/mL,0.6 µg/mL
C=CCOc1cc(NC(=S)c2sccc2C)ccc1Cl [Compound 76],2.7 µg/mL,0.035 µg/mL,≥ 1 µg/mL,5.3 µg/mL,0.73 µg/mL,> 1 µg/mL
C=CCOc1cc(NC(=S)c2sccc2C)ccc1C#N [Compound 77],≥ 1 µg/mL,0.045 µg/mL,≥ 1 µg/mL,3.6 µg/mL,0.55 µg/mL,> 1 µg/mL
C=CCOc1cc(NC(=S)c2sccc2C)ccc1OC [Compound 78],5 µg/mL,0.045 µg/mL,2 µg/mL,7.1 µg/mL,1.13 µg/mL,3.3 µg/mL
O=C(OC1CCCCC1)c1cc(NC(=S)c2ccsc2)ccc1Cl [Compound 79],0.85 µg/mL,0.03 µg/mL,0.07 µg/mL,4.1 µg/mL,0.07 µg/mL,0.08 µg/mL
O=C(OC1CCCCC1)c1cc(NC(=S)c2ccccc2Cl)ccc1Cl [Compound 80],4 µg/mL,0.5 µg/mL,5 µg/mL,8.3 µg/mL,4 µg/mL,3 µg/mL
COc1ccccc1C(=S)Nc1ccc(Cl)c(C(=O)OC2CCCCC2)c1 [Compound 81],0.7 µg/mL,0.04 µg/mL,0.65 µg/mL,12 µg/mL,0.6 µg/mL,4.5 µg/mL
O=C(OC1CCCCC1)c1cc(NC(=S)c2ccccc2)ccc1Cl [Compound 82],2 µg/mL,0.03 µg/mL,1 µg/mL,5.2 µg/mL,0.55 µg/mL,0.8 µg/mL
Cc1occc1C(=S)Nc1ccc(Cl)c(C(=O)OC2CCCCC2)c1 [Compound 83],0.17 µg/mL,0.004 µg/mL,0.057 µg/mL,9.7 µg/mL,0.035 µg/mL,0.07 µg/mL
CC(C)OC(=O)c1cc(NC(=S)c2ccccc2N)ccc1Cl [Compound 85],6 µg/mL,0.5 µg/mL,7.5 µg/mL,6.7 µg/mL,5.5 µg/mL,5.3 µg/mL
